Measured values from the supplement of paper PMC9938120.

What was measured:
Assay in all cases: drug sensitivity score (DSS3, normalised partial AUC of % inhibition dose-response) (DSS (score)); higher = more sensitive (stronger inhibition of viability); extreme values may be limits of the assay
[1] = test system: FMOC04 (patient-derived high-grade serous ovarian cancer cells); conditions: 72 h; library: FO5A; assay format: 2D, 384-well, CellTiter-Glo
Method in brief: (§1)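 Cells were dispensed onto 384-well flat clear-bottom plates already holding compounds at five concentrations over a 10,000-fold range, using patient-derived ovarian cancer cells at passage under 10. Incubation lasted 72 h at 37 °C in 5% CO2, after which CellTiter-Glo viability data were processed in Breeze. Higher drug sensitivity scores, each a partial area under the percent-inhibition dose-response curve divided by the log of the upper asymptote, mean more sensitive cells.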

[2] = test system: FMOC02_1 (patient-derived low-grade serous ovarian cancer cells); conditions: 72 h; library: FO5A; assay format: 2D, 384-well, CellTiter-Glo
Method in brief: as §1

[3] = test system: FMOC02_2 (patient-derived low-grade serous ovarian cancer cells); conditions: 72 h; library: FO5A; assay format: 2D, 384-well, CellTiter-Glo
Method in brief: as §1

[4] = test system: FMOC03 (patient-derived mucinous ovarian cancer cells); conditions: 72 h; library: FO5A; assay format: 2D, 384-well, CellTiter-Glo
Method in brief: as §1

[5] = test system: FMOC09 (patient-derived high-grade serous ovarian cancer cells); conditions: 72 h; library: FO5A; assay format: 2D, 384-well, CellTiter-Glo
Method in brief: as §1

[6] = test system: FMOC17 (patient-derived low-grade serous ovarian cancer cells); conditions: 72 h; library: FO5A; assay format: 2D, 384-well, CellTiter-Glo
Method in brief: as §1

[7] = test system: FMOC02_3 (patient-derived low-grade serous ovarian cancer cells); conditions: 72 h; library: FO5A; assay format: 2D, 384-well, CellTiter-Glo
Method in brief: as §1

[8] = test system: FMOC24 (patient-derived high-grade serous ovarian cancer cells); conditions: 72 h; library: FO5A; assay format: 2D, 384-well, CellTiter-Glo
Method in brief: as §1

[9] = test system: FMOC14 (patient-derived high-grade serous ovarian cancer cells); conditions: 72 h; library: FO5A; assay format: 2D, 384-well, CellTiter-Glo
Method in brief: as §1

[10] = test system: FMOC25_1 (patient-derived low-grade serous ovarian cancer cells); conditions: 72 h; library: FO4B; assay format: 2D, 384-well, CellTiter-Glo
Method in brief: as §1

[11] = test system: FMOC28 (patient-derived low-grade serous ovarian cancer cells); conditions: 72 h; library: FO5A; assay format: 2D, 384-well, CellTiter-Glo
Method in brief: as §1

[12] = test system: FMOC22 (patient-derived mucinous ovarian cancer cells); conditions: 72 h; library: FO5A; assay format: 2D, 384-well, CellTiter-Glo
Method in brief: as §1

[13] = test system: FMOC25_2 (patient-derived low-grade serous ovarian cancer cells); conditions: 72 h; library: FO5A; assay format: 2D, 384-well, CellTiter-Glo
Method in brief: as §1

[14] = test system: FMOC11 (patient-derived high-grade serous ovarian cancer cells); conditions: 72 h; library: FO5A; assay format: 2D, 384-well, CellTiter-Glo
Method in brief: as §1

[15] = test system: FMOC06 (patient-derived mucinous ovarian cancer cells); conditions: 72 h; library: FO5A; assay format: 2D, 384-well, CellTiter-Glo
Method in brief: as §1

[16] = test system: FMOC27 (patient-derived low-grade serous ovarian cancer cells); conditions: 72 h; library: FO5A; assay format: 2D, 384-well, CellTiter-Glo
Method in brief: as §1

Row | Compound | drug sensitivity score [1] | drug sensitivity score [2] | drug sensitivity score [3] | drug sensitivity score [4] | drug sensitivity score [5] | drug sensitivity score [6] | drug sensitivity score [7] | drug sensitivity score [8] | drug sensitivity score [9] | drug sensitivity score [10] | drug sensitivity score [11] | drug sensitivity score [12] | drug sensitivity score [13] | drug sensitivity score [14] | drug sensitivity score [15] | drug sensitivity score [16]
1 | COc1cc2nccc(Oc3ccc(NC(=O)Nc4cc(C)on4)c(Cl)c3)c2cc1OC [Tivozanib] | 0.3 | 5 | 3 | 2.2 | 0.4 | 2.8 | 3.3 | 0.9 | 0.5 | 1.9 | 0.5 | 1.2 | 3.2 | 1.9 | 2.3 | 1.5
2 | C[C@@H]1CCN(C(=O)CC#N)C[C@@H]1N(C)c1ncnc2[nH]ccc12 [Tofacitinib] | 0 | 0 | 0.7 | 0 | 0 | 0 | 0.1 | 0.5 | 0 | 0 | 0.7 | 0 | 0.3 | 0 | 0.7 | 0
3 | CN(C)CCOc1ccc(/C(=C(/CCCl)c2ccccc2)c2ccccc2)cc1 [Toremifene] | 4 | 6 | 5.3 | 5.3 | 3.8 | 3.3 | 7.1 | 7 | 5.2 | 2.2 | 2.4 | 5.3 | 2.2 | 4.3 | 7.4 | 1.9
4 | CC1=C(/C=C/C(C)=C/C=C/C(C)=C/C(=O)O)C(C)(C)CCC1 [Tretinoin] | 0 | 0 | 0 | 0 | 0 | 0 | 5.2 | 0 | 0 | 0 | 0 | 0 | 0.2 | 2 | 0.1 | 0
5 | NC(=S)N/N=C/c1ncccc1N [Triapine] | 0 | 4.2 | 3.5 | 2.4 | 0.9 | 2.2 | 1.7 | 1.15 | 0 | 3.2 | 5.1 | 2.4 | 6 | 1.7 | 1.8 | 2.3
6 | O=C(CCCCCCC(=O)Nc1ccc([C@H]2O[C@@H](CSc3nc(-c4ccccc4)c(-c4ccccc4)o3)C[C@@H](c3ccc(CO)cc3)O2)cc1)NO [Tubacin] | 0 | 0 | 0.3 | 4.6 | 0 | 0 | 0.4 | 0.25 | 2.9 | 0 | 0.4 | 5.4 | 0 | 4.2 | 4.1 | 0.4
7 | CN1CCc2c(c3ccccc3n2Cc2ccc(C(=O)NO)cc2)C1 [Tubastatin A] | 1.4 | 2.9 | 1.4 | 0.5 | 0.5 | 0 | 3.4 | 0.85 | 1.3 | 0 | 2.8 | 0.8 | 1.3 | 1.7 | 0 | 0
8 | COC(=O)c1ccc2c(c1)[nH]c1ncnc(NCCCN3CCCCC3)c12 [UM729] | 0.1 | 4.7 | 3.5 | 0 | 0 | 0.2 | 2.2 | 0.6 | 0.1 | 0 | 3.1 | 0 | 1.8 | 1.1 | 0 | 0.5
9 | COc1cc2c(NC3CCN(C(C)C)CC3)nc(C3CCCCC3)nc2cc1OCCCN1CCCC1 [UNC0638] | 4.3 | 5.5 | 0.5 | 0 | 1.9 | 4.7 | 5.4 | 7.6 | 3.1 | 0.2 | 0 | 2 | 6.5 | 3.5 | 1.7 | 2.1
10 | COc1cc2c(NC3CCN(C(C)C)CC3)nc(N3CCC(F)(F)CC3)nc2cc1OCCCN1CCCC1 [UNC0642] | 1.2 | 4 | 1.1 | 0 | 0.2 | 2.1 | 2.3 | 4.3 | 0.1 | 0 | 0 | 0.1 | 0.7 | 2.3 | 0.2 | 0
11 | O=C(c1ccc(C(=O)N2CCC(N3CCCC3)CC2)c(Nc2ccccc2)c1)N1CCC(N2CCCC2)CC1 [UNC1215] | 0 | 0 | 0.3 | 0 | 0 | 0 | 0 | 0 | 0 | 0 | 0 | 0 | 0 | 0 | 0 | 0
12 | CCCCNc1ncc(C(=O)NCc2ccc(-n3ccnc3)cc2)c(NC2CCC(O)CC2)n1 (stereo not drawn) [UNC2881] | 0 | 1.4 | 2.2 | 0.2 | 0 | 1.3 | 2.5 | 0.4 | 0 | 0 | 1.5 | 0.4 | 1.8 | 0 | 0 | 0
13 | NC(=O)c1cccc(-c2cccc(OC(=O)NC3CCCCC3)c2)c1 [URB597] | 0 | 0 | 0 | 0 | 0 | 0 | 0.2 | 0 | 0 | 0 | 0 | 0 | 0 | 0 | 0 | 0
